Measured values: ChEMBL document CHEMBL1126998, “-lactam derivatives from 1-H-1,2-diazepines” (Bioorg Med Chem Lett, 1993)
Where “and” joins values, the source holds several entries; their conditions need not be identical. Equal entries are not always repeated.

How the values were obtained:
JM1 [1] = assay: Tested for antiviral uM; Activity expressed as % inhibition of syncytium; type: functional, Homo sapiens
JM1 [2] = assay: (§1) Tested for antiviral activity of compound against HIV (Strain GB 8) in JM cells; type: functional, cell-based; settings: Homo sapiens
JM1 [3] = assay: as §1; type: functional, Homo sapiens
JM1 [4] = assay: as §1; type: functional, cell-based; settings: Homo sapiens; remark: listed apart in the source
JM1 [5] = assay: Tested for the cytotoxicity against JM cells at 100 uM in an MTT assay; type: functional, Homo sapiens

Structure (SMILES) | Inhibition (JM1 [1]) | IC50 (JM1 [2]) | IC90 (JM1 [3]) | IC90 (JM1 [3]; Homo sapiens, JM1) | IC50 (JM1 [4]) | Cytotoxicity (JM1 [5])
COC(=O)NN1C(=O)[C@H](C)[C@H]1[C@@H]1NC[C@@H](O)[C@H]1O.Cl | 20% and 27% |  |  |  |  | 
O[C@H]1[C@H](O)[C@@H](O)CN2CC[C@H](O)[C@H]12 [CASTANOSPERMINE] |  | 7.3 µM | 24.5 µM | 28.2 µM | 8.8 µM | 0% and 4%
